Results as given in patent US8754038B2, “Template-fixed peptidomimetics with CCR10 antagonistic activity” (priority 2009, dated 2014).
Numbered stars: 1 amine (or outer) side, 2 acyl side, 3 side chain; on linkers, the order of the positions; unused ones are H or OH. Square brackets hold non-standard residues; d marks the D form. Side chains are listed from the residue outwards. Peptide text beside a SMILES is read from it. * marks the point of attachment. X1 = O=C([C@@H]1C[C@@H](Cc2ccc(Br)cc2)CN1[*:1])[*:2]; Phe(4-CF3) = N[C@@H](Cc1ccc(C(F)(F)F)cc1)C(=O)O; X7 = O=C([C@H](CCNCc1c[nH]cn1)N[*:1])[*:2]; Oic = O=C(O)[C@@H]1C[C@@H]2CCCC[C@@H]2N1; MeOCH2CH2OCH2CO = COCCOCC(=O)*; N(Me)CH2CH2OMe = COCCN(C)*; Thz = O=C(O)[C@@H]1CSCN1; Ac5c = NC1(C(=O)O)CCCC1; Dab = NCC[C@H](N)C(=O)O; X8 = Cn1cncc1CCC(=O)*; CO = O=C([*:1])[*:2]; NHCH2CH2OMe = COCCN*; Ms = CS(=O)(=O)*

Tests used:
human CCR10 [1] = target: T1, human CCR10 (Homo sapiens, UniProt P46092); assay: Calcium flux assay (CCR10 antagonism, CCL27 as agonist); type: cell-based; conditions: CCR10 transfected 300-19 murine pre-B cells; CCL27 30 nM
T1 construct: expressed in transfected cells
T1 sequence (P46092 1-362): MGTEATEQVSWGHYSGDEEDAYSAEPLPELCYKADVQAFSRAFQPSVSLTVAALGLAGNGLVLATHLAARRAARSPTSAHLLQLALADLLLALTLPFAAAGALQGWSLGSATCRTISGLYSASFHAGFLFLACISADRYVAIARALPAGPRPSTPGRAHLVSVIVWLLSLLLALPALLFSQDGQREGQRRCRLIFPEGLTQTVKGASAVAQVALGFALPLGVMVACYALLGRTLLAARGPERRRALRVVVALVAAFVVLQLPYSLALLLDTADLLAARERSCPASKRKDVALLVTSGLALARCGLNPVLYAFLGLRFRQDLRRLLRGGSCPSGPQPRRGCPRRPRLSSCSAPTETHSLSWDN
Method: (§1) Lyophilized peptides were weighed on a Microbalance (Mettler MX5) and dissolved in aqueous 90% DMSO to a final concentration of 10 mM unless otherwise stated. Stock solutions were kept at +4° C., and protected from light.
(§2) Peptides were assayed for CCR10 antagonism in a calcium flux assay and in a chemotaxis assay using a mouse pre-B cell line 300-19 stably transfected with human CCR10, and with human CCL27 as agonist.
The calcium flux release was assessed using CCR10 transfected 300-19 murine pre-B cells. These cells were labeled as a batch with Calcium4 Reagent (Molecular Devices, Sunnyvale, Calif.) in HBSS buffer for 60 min.
After dispensing 8×10^4 cells in each well of a 384-well black plate, a concentrated solution of the β-hairpin peptidomimetics of this invention in HBSS+0.1% BSA+0.1% DMSO (final concentration) was added to the cells. The entire plate was centrifuged and placed in a Flexstation II (Molecular Devices) automated plate reader. After reading a 20 s baseline, the Flexstation dispensed CCL27 (RnD systems) at a final concentration of 30 nM in HBSS+0.1% BSA onto the cells and calcium flux was measured for an additional 70 s.
Alternatively a FIipR384 (Molecular Devices) was used for read out of the 384-well plates. In this case about 8×10^4 cells were placed in each well, centrifuged, placed in the FlipR and after 5 s of baseline reading, the β-hairpin peptidomimetics in HBSS+0.1% BSA+0.1% DMSO (final concentration) were added. After an incubation time of 5 min, the CCL27 solution was added to the mixture and the calcium flux was measured for 200 s.
The maximum signal was determined from control wells without inhibitor. Percentage of inhibition was calculated from a range of compound concentrations, which were subsequently used to calculate IC50 values (Softmax Pro, Molecular Devices). All steps were carried out at room temperature.

human CCR10 [2] = target: T1, human CCR10; assay: Chemotaxis assay (CCR10-transfected 300-19 cells, CCL27 gradient); type: cell-based; conditions: CCR10-transfected 300-19 murine pre-B cells; 30 nM CCL27 gradient
Method: as §1, §2
The chemotactic response of CCR10-transfected 300-19 murine pre-B cells to a gradient of CCL27 (CTACK) was measured using disposable Transwell® assay plates from Costar (5 μm pore size) according to the protocol of the manufacturer. Briefly, cells were grown under sterile conditions at 37° C. with 5% CO2 in flasks containing RPMI+5% FCS, glutamine, penicillin/streptomycin (all media components were from Life Technologies) and the appropriate selection antibiotics (Puromycin, G418 or Tetracycline). For the assay, cells were pelleted by centrifugation, washed once in Dulbecco's phosphate buffered saline (DPBS), and resuspended to give 1×10^6 cells/ml in RPMI+0.5% bovine serum albumin (BSA). 100 μl of cell suspension was applied to the top of the assay filter. The β-hairpin peptidomimetics, diluted in the same assay medium, were added to both top and bottom chambers. The cells were allowed to migrate for 4-6 hours at 37° C. into the bottom chamber of the assay plate containing 30 nM of CCL27 (RnD systems). Migrated cells were counted using a FACS cytometer (Cytomics FC500, Beckman Coulter). Data normalization was performed using the number of any cells that had migrated in the absence of the β-hairpin peptidomimetic and the number of cells that have randomly migrated in absence of CCL27 [these values were taken as 100% (no inhibitory activity) and 0%, respectively]. From a range of compound concentrations IC50 were determined using Prism5 (GraphPad software).

Compound | IC50 (human CCR10 [1]) | IC50 (human CCR10 [2])
NCC[C@H](N)C(=O)NCC[C@@H]1NC(=O)[C@H](Cc2c[nH]c3ccccc23)NC(=O)C2(CCCC2)NC(=O)[C@H](Cc2c[nH]c3ccccc23)NC(=O)[C@@H]2C[C@@H]3CCCC[C@@H]3N2C(=O)[C@H]2CCCN2C1=O [Ex. 71, cyclo(-Trp-Cyp-Trp-Dab(Dab)-^DPro-Oic-)] (cyclo([Ac5c]W[Dab](Dab)[dP][Oic]W)) | 567 ± 155 nM | 50.2 nM
COCCOCC(=O)NCC[C@@H]1NC(=O)[C@H](Cc2c[nH]c3ccccc23)NC(=O)C2(CCCC2)NC(=O)[C@H](Cc2c[nH]c3ccccc23)NC(=O)[C@@H]2C[C@@H]3CCCC[C@@H]3N2C(=O)[C@H]2CCCN2C1=O [Ex. 72, cyclo(-Trp-Cyp-Trp-Dab(MEMCO)-^DPro-Oic-)] (cyclo([Ac5c]W[Dab](MeOCH2CH2OCH2CO)[dP][Oic]W)) | 62.8 ± 41.6 nM | 11.5 nM
COCCNC(=O)NCC[C@@H]1NC(=O)[C@H](Cc2c[nH]c3ccccc23)NC(=O)C2(CCCC2)NC(=O)[C@H](Cc2c[nH]c3ccccc23)NC(=O)[C@@H]2C[C@@H]3CCCC[C@@H]3N2C(=O)[C@H]2CCCN2C1=O [Ex. 73, cyclo(-Trp-Cyp-Trp-Dab(MeO(CH2)2NHCO)-^DPro-Oic-)] (cyclo([Ac5c]W[Dab]([CO-NHCH2CH2OMe])[dP][Oic]W)) | 24.2 ± 24.5 nM | 5.3 nM
COCCN(C)C(=O)NCC[C@@H]1NC(=O)[C@H](Cc2c[nH]c3ccccc23)NC(=O)C2(CCCC2)NC(=O)[C@H](Cc2c[nH]c3ccccc23)NC(=O)[C@@H]2C[C@@H]3CCCC[C@@H]3N2C(=O)[C@H]2CCCN2C1=O [Ex. 97, cyclo(-Trp-Cyp-Trp-Dab((MeO(CH2)2)(Me)NCO)-^DPro-Oic-)] (cyclo([Ac5c]W[Dab]([CO-N(Me)CH2CH2OMe])[dP][Oic]W)) | 8.1 ± 9.1 nM | 5.6 nM
CS(=O)(=O)NCC[C@@H]1NC(=O)[C@H](Cc2c[nH]c3ccccc23)NC(=O)C2(CCCC2)NC(=O)[C@H](Cc2c[nH]c3ccccc23)NC(=O)[C@@H]2C[C@@H]3CCCC[C@@H]3N2C(=O)[C@H]2CCCN2C1=O [Ex. 100, cyclo(-Trp-Cyp-Trp-Dab(MeSO2)-^DPro-Oic-)] (cyclo([Ac5c]W[Dab](Ms)[dP][Oic]W)) | 0.2 ± 0.1 nM | 3.4 nM
O=C1NC2(CCCC2)C(=O)N[C@@H](Cc2c[nH]c3ccccc23)C(=O)N[C@@H](CCNCc2c[nH]cn2)C(=O)N2CCC[C@@H]2C(=O)N2[C@@H](C[C@@H]3CCCC[C@@H]32)C(=O)N[C@H]1Cc1c[nH]c2ccccc12 [Ex. 106, cyclo(-Trp-Cyp-Trp-Dab(A55)-^DPro-Oic-)] (cyclo([Ac5c]W[X7][dP][Oic]W)) | 12.2 ± 3.8 nM | 4.8 nM
Cn1cncc1CCC(=O)NCC[C@@H]1NC(=O)[C@H](Cc2c[nH]c3ccccc23)NC(=O)C2(CCCC2)NC(=O)[C@H](Cc2ccc(C(F)(F)F)cc2)NC(=O)[C@@H]2C[C@@H]3CCCC[C@@H]3N2C(=O)[C@H]2CCCN2C1=O [Ex. 108, cyclo(-Phe(4CF3)-Cyp-Trp-Dab(A56)-^DPro-Oic-)] (cyclo([Ac5c]W[Dab](X8)[dP][Oic][Phe(4-CF3)])) | 34.5 ± 17.3 nM | 2.5 nM
NCC[C@@H]1NC(=O)[C@H](Cc2c[nH]c3ccccc23)NC(=O)C2(CCCC2)NC(=O)[C@H](Cc2c[nH]c3ccccc23)NC(=O)[C@@H]2CSCN2C(=O)[C@H]2CCCN2C1=O [compound 6, cyclo(-Trp-Cyp-Trp-Dab-^DPro-Thz-)] (cyclo([Ac5c]W[Dab][dP][Thz]W)) | 134 ± 73.3 nM | 19.6 nM
NCC[C@@H]1NC(=O)[C@H](Cc2c[nH]c3ccccc23)NC(=O)C2(CCCC2)NC(=O)[C@H](Cc2c[nH]c3ccccc23)NC(=O)[C@@H]2C[C@@H](Cc3ccc(Br)cc3)CN2C(=O)[C@H]2CCCN2C1=O [compound 39, cyclo(-Trp-Cyp-Trp-Dab-^DPro-Pro((4R)4BrBn)-)] (cyclo([Ac5c]W[Dab][dP][X1]W)) | 15.8 ± 10.3 nM | 9 nM
